In brackets after ≈: the same amount, converted by molar mass. Several values for one entry are separate records, joined by “and”; a condition that tells them apart may be missing. Equal values may be shown once. Read-outs that look alike come from different tables or passages of the source.
Legend:
B16 melanoma cells [1] = test: Anti-melanogenesis assay (melanin content); type: cell-based, mouse
Description: (§1) This assay was performed as described by Arung et al.. The mouse melanoma cell line B16 was obtained from the Riken Bioresource Center Cell Bank (Tsukuba, Japan). The B16 melanoma cells were maintained in Eagle’s Minimal Essential Medium (EMEM, Nissui Chemical, Tokyo) supplemented with 10% (v/v) fetal bovine serum (FBS; Gibco, Carlsbad, CA, USA) and 0.09 mg/mL theophylline (Sigma-Aldrich, St. Louis, MO, USA). […] After 24 h, test samples were dissolved in DMSO (<0.2% per well) and sample solution were added to each well. Arbutin (Tokyo Kasei Kogyo, Tokyo) was used as a positive control. The cells were incubated for an additional 48 h, and then the medium was replaced with fresh medium containing each sample again. After 24 h, the melanin content and the cell viability were measured using a microplate reader (BioTek-ELX800, BioTek Instruments, Winooski, VT, USA) at 405 nm and 570 nm, respectively. Cell viability was measured using the MTT (3-(4,5-dimethylthiazol-2-yl)-2,5-diphenyltetrazolium bromide) method.

B16 melanoma cells [2] = test: Cell viability of B16 melanoma cells (MTT); conditions: for Inhibition rate (100% − cell viability): B16 cells; for CC50 cell viability / CC50: B16 melanoma cells, MTT; for CC50: read-out: CC50 (cell viability)
Description: as §1

Propionibacterium acnes = test: Anti-bacterial assay (growth inhibition, MIC/MBC by broth microdilution); type: cell-based; conditions: for activity against P. acnes (in words): at their maximum solubility; for Inhibition Rate (P. acnes growth): concentration 100 μg/mL
Description: The antibacterial assay was based mostly on the methods described by Tanaka et al. with slight modification. Propionibacterium acne (NBRC 107605) was used for the antibacterial assay. A single colony of the test strain was taken and 5 mL of Gifu anaerobic medium (GAM) broth (Nissui, Tokyo) was added to it. This culture was incubated at 37 °C for 30 h. It was then added to the bacterial suspension to prepare a bacterial concentration at 10^5 CFU/mL. The bacterial solution was used for the subsequent antibacterial assay. Each compound was dissolved in DMSO, and benzalkonium chloride (Wako) was used as a positive control. The plate was incubated at 37 °C for 30 h. Finally, bacterial growth was measured by a microplate reader at 630 nm. The MIC and MBC were evaluated by the standard broth microdilution method.

RBL-2H3 cells [3] = test: Cell viability of RBL-2H3 cells (parallel MTT); type: cell-based, rat; conditions: 25 μg/ml, RBL-2H3 cells
Description: (§2) The anti-allergy assay was based mostly on the methods described by Zhu et al. and Yun et al. with slight modification. Rat basophilic leukemia (RBL-2H3) cells were obtained from the Riken Bio-resource Center Cell Bank (Tsukuba, Japan). RBL-2H3 cells were incubated in EMEM medium containing 10% FBS and 1% antibiotics–antimycotics at 37 °C. The cells were seeded on a 96-well plate (2 × 10^5 cells/well). After 24 h of incubation, the medium was supplemented with 0.5 μg/mL anti-DNP (dinitrophenol) mouse immunoglobulin E (IgE) (Sigma-Aldrich). After an additional 24 h of incubation, the medium was replaced with 100 μL of Tyrode buffer. The sample dissolved in DMSO (<0.5% per well) was added, and the cell plate was incubated again for 30 min, then replaced with 100 μL of tyrode buffer containing 50 μg/mL DNP-bovine serum albumin (BSA) (Invitrogen, Carlsbad, CA, USA). After 1 h of incubation, 50 μL of the supernatant was collected from each well and mixed with 50 μL of substrate solution (p-nitrophenyl-N-acetyl-β-glucosaminide, 2 mM; Sigma-Aldrich) in a new 96-well plate. The mixture was incubated at room temperature on a shaker for 3 h. Finally, 100 μL of stop solution was added, and the absorbance was read at 405 nm. A parallel MTT experiment was performed to measure the cell viability. The MTT experiment was done exactly as described.

NHDF cells = test: Skin type I collagen synthesis promoting assay (ELISA, with MTT); type: cell-based, human; conditions: 5 μg/mL, fold of control
Description: The assay for measuring the promotion of skin collagen synthesis was described by Kishikawa et al.. Adult NHDF cells (Lonza, Tokyo) were routinely maintained in 10% FBS and 1% antibiotic-antimycotic (Invitrogen) in Dulbecco’s modified Eagle’s medium (DMEM, Wako). After growing to confluence, cells at a density of 5 × 10^3 cells/well were seeded on 96-well plates for 24 h before the treatment. The medium was replaced with a mixture of 1 μL of sample solution (DMSO < 0.5% per well) and 99 μL of DMEM supplemented with 0.5% FBS. After 72 h of cultivation, the amount of collagen in the medium was measured using a human type I collagen enzyme-linked immunosorbent assay (ELISA) kit (ACEL, Kanagawa, Japan). The amount of collagen production was calculated using a standard curve prepared by measurement by the same ELISA. The cells remaining in the 96-well plate were subjected to an MTT assay. Ascorbic acid (100 μM, Wako) was used as a positive control.

in vitro = conditions: mouse
Description: as §1

[4] = Cell viability of RBL-2H3 cells (parallel MTT); type: cell-based, rat; conditions: rat
Description: as §2

RBL-2H3 cells [5] = test: β-hexosaminidase release from IgE-stimulated RBL-2H3 mast cells; type: cell-based, rat; conditions: Rattus norvegicus, RBL-2H3
Description: as §2

[6] = B16 melanoma cells, read-out: IC50 (melanin synthesis)
[7] = Mus musculus, B16 melanoma cells, read-out: IC50 (melanin synthesis)
[8] = Mus musculus, B16 melanoma cells, read-out: IC50 melanin
[9] = Mus musculus, B16, read-out: Inhibition rate (100% − melanin synthesis)

Compound | Inhibition rate (100% − melanin synthesis) (B16 melanoma cells [1]; 1 μg/ml, B16 cells) | Inhibition rate (100% − melanin synthesis) (B16 melanoma cells [1]; 2.5 μg/ml, B16 cells) | Inhibition rate (100% − melanin synthesis) (B16 melanoma cells [1]; 5 μg/ml, B16 cells) | Inhibition rate (100% − melanin synthesis) (B16 melanoma cells [1]; 10 μg/ml, B16 cells) | Inhibition rate (100% − melanin synthesis) (B16 melanoma cells [1]; 20 μg/ml, B16 cells) | IC50 melanin (B16 melanoma cells [1]; B16 melanoma cells) | IC50 (B16 melanoma cells [1]; [6]) | Inhibition rate (100% − cell viability) (B16 melanoma cells [2]; 1 μg/ml) | Inhibition rate (100% − cell viability) (B16 melanoma cells [2]; 2.5 μg/ml) | Inhibition rate (100% − cell viability) (B16 melanoma cells [2]; 5 μg/ml) | Inhibition rate (100% − cell viability) (B16 melanoma cells [2]; 10 μg/ml) | Inhibition rate (100% − cell viability) (B16 melanoma cells [2]; 20 μg/ml) | CC50 cell viability (B16 melanoma cells [2]) | CC50 (B16 melanoma cells [2]) | MBC (Propionibacterium acnes; P. acnes, broth microdilution) | MIC (Propionibacterium acnes; P. acnes, broth microdilution) | activity against P. acnes (in words) (Propionibacterium acnes) | Inhibition Rate (P. acnes growth) (Propionibacterium acnes) | Cell viability (RBL-2H3 cells [3]) | CP/CV value (collagen production %/cell viability %) (NHDF cells) | also measured
C[C@@H]1CC[C@]2(C(=O)O)CC[C@]3(C)C(=CC[C@@H]4[C@@]5(C)C[C@@H](O)[C@H](OC(=O)/C=C\c6ccc(O)cc6)C(C)(C)[C@@H]5CC[C@]43C)[C@@H]2[C@]1(C)O (relative stereo) [Compound 18, 3-O-cis-p-coumaroyl tormentic acid] | 0.0 ± 2.1% | 0.0 ± 5.3% | 0.0 ± 3.8% | 35.6 ± 1.1% | 47.1 ± 6.0% | > 20.0 µg/mL | > 30.9 µM | 7.0 ± 8.8% | 6.6 ± 11.1% | 12.6 ± 8.4% | 42.4 ± 14.9% | 80.1 ± 9.5% | 12.6 µg/mL (≈ 19.8 µM) | 19.5 µM | 200 µg/mL (≈ 315 µM) | 100 µg/mL (≈ 158 µM) | active | 103.5 ± 2.2% | 104.6 ± 6.7% | 1.1 | 
C[C@@H]1CC[C@]2(C(=O)O)CC[C@]3(C)C(=CC[C@@H]4[C@@]5(C)C[C@@H](O)[C@H](OC(=O)/C=C/c6ccc(O)cc6)C(C)(C)[C@@H]5CC[C@]43C)[C@@H]2[C@]1(C)O (relative stereo) [Compound 17, 3-O-trans-p-coumaroyl tormentic acid] | 2.8 ± 0.9% | 6.2 ± 1.7% | 11.1 ± 0.6% | 29.4 ± 6.8% | 30.5 ± 6.0% | > 20.0 µg/mL | > 30.9 µM | 0.0 ± 8.4% | 5.1 ± 6.0% | 10.7 ± 10.0% | 41.1 ± 9.2% | 61.0 ± 1.6% | 15.6 µg/mL (≈ 24.6 µM) | 24 µM | 200 µg/mL (≈ 315 µM) | 100 µg/mL (≈ 158 µM) | active | 101.4 ± 2.1% | 99.8 ± 7.0% | 1.2 | 
OC[C@H]1O[C@@H](Oc2ccc(O)cc2)[C@H](O)[C@@H](O)[C@@H]1O [Arbutin, reference compound] |  |  |  |  |  |  |  |  |  |  |  |  |  |  |  |  |  |  |  |  | IC50 (B16 melanoma cells [1]; [7]): 976 µM; CC50 at 72 h (in vitro): 1820 µM
C[C@H]1[C@H](C)CC[C@]2(CO)CC[C@]3(C)C(=CC[C@@H]4[C@@]5(C)CC[C@H](O)C(C)(C)[C@@H]5CC[C@]43C)[C@H]12 [Compound 3, Uvaol] |  |  |  |  |  |  |  |  |  | 4.0 ± 7.6% | 10.8 ± 6.8% | 6.5± 7.4% |  |  |  |  |  |  |  |  | inhibition at 5 µg/mL (B16 melanoma cells [1]; Mus musculus, 5 μg/ml, B16 cells, read-out: Inhibition rate (100% − melanin synthesis)): 0%; inhibition at 10 µg/mL (B16 melanoma cells [1]; Mus musculus, 10 μg/ml, B16 cells, read-out: Inhibition rate (100% − melanin synthesis)): 14.2 ± 2.6%; inhibition at 20 µg/mL (B16 melanoma cells [1]; Mus musculus, 20 μg/ml, B16 cells, read-out: Inhibition rate (100% − melanin synthesis)): 14.6 ± 4.6%; IC50 (B16 melanoma cells [1]; [7]): > 45.2 µM; IC50 (B16 melanoma cells [1]; [8]): > 20 µg/mL; CC50 at 72 h (in vitro; B16 melanoma cells): > 45.2 µM; inhibition at 50 µg/mL (Propionibacterium acnes; Cutibacterium acnes, concentration 50 μg/mL, read-out: Inhibition Rate (P. acnes growth)): < 0%; viability at 25 μg/ml ([4]; 25 μg/ml, RBL-2H3 cells, read-out: Cell viability): 110 ± 10.2%; inhibition at 25 µg/mL (RBL-2H3 cells [5]; 25 μg/mL, read-out: Inhibition Rate (β-hexosaminidase release)): 29.9 ± 3.3%
CC1CCC2(C(=O)O)CCC3(C)C(=CCC4C5(C)C(CO)=CC(C)(C)C5CCC43C)C2C1(C)O (stereo not drawn) [Compound 16, hyptadienic acid] |  |  |  |  |  |  |  | 3.7 ± 3.8% | 14.7 ± 4.2% | 28.9 ± 3.2% | 60.3 ± 6.5% |  |  |  |  |  | active |  |  |  | S.I (selectivity index, CC50 value/IC50 value) (B16 melanoma cells [1]; B16 melanoma cells): 0.8; IC50 (B16 melanoma cells [1]; Mus musculus, B16, read-out: IC50 (melanin synthesis)): 21.6 µM; inhibition at 1 µg/mL (B16 melanoma cells [1]; [9]): 0.1 ± 4.5%; inhibition at 2.5 µg/mL (B16 melanoma cells [1]; [9]): 1.9 ± 3.4%; inhibition at 5 µg/mL (B16 melanoma cells [1]; [9]): 13.4 ± 5.5%; inhibition at 10 µg/mL (B16 melanoma cells [1]; [9]): 51.8 ± 5%; IC50 (B16 melanoma cells [1]; [8]): 10.1 µg/mL; CC50 at 72 h (in vitro): 7.8 µg/mL and 16.5 µM; MBC (Propionibacterium acnes; Cutibacterium acnes): 200 µg/mL (≈ 425 µM); MIC (Propionibacterium acnes; Cutibacterium acnes): 100 µg/mL (≈ 212 µM); inhibition at 100 µg/mL (Propionibacterium acnes; Cutibacterium acnes, read-out: Inhibition Rate (P. acnes growth)): 104 ± 3.1%; viability at 25 μg/ml [4]: 99.9 ± 2.3%
O=c1c(O)c(-c2ccc(O)c(O)c2)oc2cc(O)cc(O)c12 [Quercetin, reference compound] |  |  |  |  |  |  |  |  |  |  |  |  |  |  |  |  |  |  |  |  | inhibition at 82 µM (RBL-2H3 cells [5]; 82 μM, positive control, read-out: inhibition rate of β-hexosaminidase release): 72.5%

Source: paper PMC5454942, “The Potential of Triterpenoids from Loquat Leaves (Eriobotrya japonica) for Prevention and Treatment of Skin Disorder” (International Journal of Molecular Sciences, 2017)
